This is an account of results in patent US20090022729A1, “METHODS AND COMPOSITIONS FOR TREATING CARDIAC DYSFUNCTIONS” (priority 2007, published 2009).

Assay [1] deals with T1, PAR-1 (Homo sapiens, UniProt P25116).
T1 sequence (P25116 22-425): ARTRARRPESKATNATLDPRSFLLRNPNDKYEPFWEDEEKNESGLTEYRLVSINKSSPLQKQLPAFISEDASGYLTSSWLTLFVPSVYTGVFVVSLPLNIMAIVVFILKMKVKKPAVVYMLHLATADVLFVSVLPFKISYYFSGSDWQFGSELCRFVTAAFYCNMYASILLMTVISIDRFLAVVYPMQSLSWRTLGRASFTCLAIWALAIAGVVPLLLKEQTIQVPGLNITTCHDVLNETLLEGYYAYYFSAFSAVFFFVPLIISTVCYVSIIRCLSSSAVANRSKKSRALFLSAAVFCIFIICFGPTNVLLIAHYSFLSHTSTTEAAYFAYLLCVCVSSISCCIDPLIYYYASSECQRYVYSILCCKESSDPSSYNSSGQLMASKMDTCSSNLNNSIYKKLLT
As to conditions: cited from earlier work.

The target of a further assay is T2, PAR4 (Homo sapiens, UniProt Q96RI0).
T2 sequence (Q96RI0 18-385): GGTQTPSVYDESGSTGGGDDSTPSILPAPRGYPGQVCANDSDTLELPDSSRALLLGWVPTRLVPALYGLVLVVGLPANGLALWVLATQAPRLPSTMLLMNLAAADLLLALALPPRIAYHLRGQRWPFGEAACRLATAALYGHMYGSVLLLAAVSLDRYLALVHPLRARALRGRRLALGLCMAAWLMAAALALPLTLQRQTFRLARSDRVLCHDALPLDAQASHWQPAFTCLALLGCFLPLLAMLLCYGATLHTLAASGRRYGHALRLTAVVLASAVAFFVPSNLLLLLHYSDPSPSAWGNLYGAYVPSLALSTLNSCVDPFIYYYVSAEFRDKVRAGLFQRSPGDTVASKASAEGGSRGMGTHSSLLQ
To be noted: cited from earlier work.

In a further assay the target is T3, PAR2 (Homo sapiens, UniProt P55085).
T3 sequence (P55085 26-397): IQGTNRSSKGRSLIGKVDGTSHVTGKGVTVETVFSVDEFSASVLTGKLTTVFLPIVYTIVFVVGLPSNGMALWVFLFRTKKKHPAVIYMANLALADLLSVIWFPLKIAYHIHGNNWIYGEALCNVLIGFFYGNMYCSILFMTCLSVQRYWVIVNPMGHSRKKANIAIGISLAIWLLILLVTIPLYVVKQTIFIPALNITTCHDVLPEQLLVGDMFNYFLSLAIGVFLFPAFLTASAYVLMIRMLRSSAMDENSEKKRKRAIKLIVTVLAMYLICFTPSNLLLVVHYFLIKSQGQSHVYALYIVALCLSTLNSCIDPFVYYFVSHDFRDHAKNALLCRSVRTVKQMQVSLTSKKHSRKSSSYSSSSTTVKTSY
To be noted: cited from earlier work.

The target of assay [2] is T1, PAR-1. As to conditions: cited from earlier work. This is another data set of the same source.
In another assay the target is T4, PAR3 (Homo sapiens, UniProt O00254).
T4 sequence (O00254 22-374): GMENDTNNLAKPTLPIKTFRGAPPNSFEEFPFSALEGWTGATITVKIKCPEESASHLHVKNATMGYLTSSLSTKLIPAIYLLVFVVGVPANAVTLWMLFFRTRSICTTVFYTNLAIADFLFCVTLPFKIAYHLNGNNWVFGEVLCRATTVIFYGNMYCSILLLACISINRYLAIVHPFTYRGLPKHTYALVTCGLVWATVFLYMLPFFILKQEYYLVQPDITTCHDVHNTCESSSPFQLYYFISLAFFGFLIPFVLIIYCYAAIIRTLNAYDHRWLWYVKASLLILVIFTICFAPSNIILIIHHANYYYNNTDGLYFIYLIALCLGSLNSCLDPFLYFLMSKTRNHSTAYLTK
To be noted: cited from earlier work.

In assay [3] the target is thrombin (Homo sapiens, UniProt P00734). As to conditions: cited from earlier work.
Assay [4] has as its target T5, thrombin (Mus musculus, UniProt P19221).
T5 construct: from tissue; host or cells: wild-type mice in vivo (blood / injured myocardium)
The assay can be described thus: short-term cardiac I/R injury model (30 minutes of ischemia and 2 hours of reperfusion). Format: in vivo. As to conditions: WT mice, hirudin vs saline, FIG. 1A. The protocol:
Cardiac I/R injury models. For the short-term I/R model (30 minutes of ischemia and 2 hours of reperfusion), the surgical protocol and infarct size determination were performed as described in Palazzo et al. (Am. J. Physiol. 275:H2300-H2307 (1998)) with some modifications. Briefly, intraperitoneal injection of pentobarbital (100 mg/kg) (Abbott Laboratories, Abbott Park, Ill.) was used for anesthesia. Mice were orally intubated to provide artificial ventilation (0.3 mL tidal volume, 120 breaths/minute). The left anterior descending coronary artery was occluded with a 7-0 silk suture (U.S. Surgical Corp., Norwalk, Conn.) passed through PE tubing (U.S. Surgical Corp.) to make a Rumel snare. After 30 minutes of ischemia, the snare was released and the heart was reperfused for 2 hours. Finally, the artery was reoccluded and 4% Evans Blue dye was injected into the aortic root to delineate the area-at-risk (AAR) from not at-risk myocardium (blue). […] The LV, AAR and infarct areas were traced and calculated by computer planimetry (Image J, version 1.21). Infarct volumes were calculated as: [(A1×W1)+(A2×W2)+(A3×W3)+(A4×W4)+(A5×W5)], where A is the area of infarct for the slice denoted by the subscript and W is the weight of the respective section.

Consider `NCC[C@H](NC(=O)[C@H](Cc1ccc(F)c(F)c1)NC(=O)Nc1ccc2c(CN3CCCC3)cn(Cc3c(Cl)cccc3Cl)c2c1)C(=O)NCc1ccccc1` [RWJ-56110, (αS)—N-[(1S)-3-amino-1-[[(phenylmethyl)amino]carbonyl]propyl]-α-[[[[[1-(2,6-dichlorophenyl)methyl]-3-(1-pyrrolidinylmethyl)-1H-indol-6-yl]amino]carbonyl]amino]-3,4-difluorobenzenepropanamide], for which the “PAR1 antagonist activity and selectivity” value on PAR-1 [1] is on record as “potent, selective PAR-1 antagonist”. In addition, the “effect on PAR4” value at PAR4 was “does not affect”. For the same molecule, at PAR2, the “effect on PAR2” value was “does not affect”. Besides, the calcium mobilization result on PAR-1 [2] was “interferes with calcium mobilization”. Also, the “effect on PAR3” value on PAR3 is reported as “does not affect”. In addition, the “inhibition of thrombin activity” value at thrombin [3] is “does not affect PAR2, PAR3, or PAR4 or inhibit thrombin activity”.

As to hirudin, at thrombin [4], the infarct size entry is “decreased” and the “size of the area at-risk” value is given as “Neither hirudin treatment nor PAR1 deficiency affected”.
